Reference: patent publication US10045987B2, “Imidazoyl anilide derivatives and methods of use” (Codexis, Inc., priority 2014, dated 2018)

Tests used:
[1] = test system: K562 lymphoblast cell line; assay: K562 cytotoxicity assay at RBC, Cell Titer-Glo 2.0, 72 hours; type: cell-based; settings: class relative to nilotinib
Protocol: In this Example, experiments conducted at RBC to assess the cytotoxicity of nilotinib and compounds 14, 17, 19, 21, and 22 (i.e., test compounds) are described. All of the test compounds were kept between 4° C. to 8° C. in solid form or as solution in DMSO.
The cell line K562 was obtained from the ATCC. Test compounds were dissolved in DMSO (1 mM stock). Cell Titer-Glo® 2.0 Luminescent cell viability assay reagent was obtained from Promega. K562 lymphoblast cell line was cultured in Iscove's Modified Dulbecco's medium supplemented with 10% FBS. 100 μg/ml penicillin and 100 μg/ml streptomycin were added to all culture media. Cultures were maintained at 37° C. in a humidified atmosphere of 5% CO2 and 95% air. Test compounds in DMSO were added in a source plate. 25 nL of test compounds was delivered from the source plate to each well of the 384-well cell culture plates by Echo 550. 25 μl of culture medium containing 1000 cells for each cell line was added to the wells of the cell culture plates. Cells were incubated with test compounds at 37° C., 5% CO2 for 72 hours. 25 μl of Cell Titer Glo 2.0 reagent was added to each well. The contents were mixed on an orbital shaker for 2 minutes and incubated at room temperature for 10 minutes to stabilize luminescent signal. Luminescence was recorded by Envision 2104 Multilabel Reader (PerkinElmer). The number of viable cells in culture was determined based on quantization of the ATP present in each culture well. The IC50 values were calculated and the IC50 curves were plotted using the GraphPad Prism 4 program based on a sigmoidal dose-response equation.

K-562 cells = assay: K-562 cytotoxicity assay, CellTiter 96 Aqueous One, 72 hours; settings: for K-562 IC50: 72 hours, CellTiter 96, class relative to nilotinib
hERG potassium channels = hERG potassium channels (Homo sapiens, UniProt Q12809)
Protocol: CHO cells stably expressing hERG potassium channels obtained from Aviva BioSciences were used for this test.
Visual check for precipitation was conducted before testing.
The hERG QPatchHTX assay was conducted at room temperature. The whole-cell protocols, voltage protocols and application protocols were established with QPatch Assay Software 5.0 (Sophion).

Flt1[h] = molecular target: T1, Flt1[h] (Homo sapiens, UniProt P17948); assay: Flt1 kinase assay at Merck-Milliore (standard protocol); type: biochemical
T1 construct: purchased Merck-Milliore (contract assay service)
Protocol: (§1) The assays were performed at Merck-Milliore, using their standard assay protocols

cSRC = molecular target: T2, cSRC (Homo sapiens, UniProt P12931); assay: cSRC kinase assay at Merck-Milliore (standard protocol); type: biochemical
T2 construct: purchased Merck-Milliore (contract assay service)
Protocol: as §1

cKit[h] = molecular target: T3, cKit[h] (Homo sapiens, UniProt P10721); assay: cKit kinase assay at Merck-Milliore (standard protocol); type: biochemical
T3 construct: purchased Merck-Milliore (contract assay service)
Protocol: as §1

PDGFRα[h] = PDGFRα[h] (Homo sapiens, UniProt P16234); assay: biochemical
Protocol: as §1

| Compound | K-562 IC50 (RBC) [1] | K-562 IC50 (K-562 cells) | hERG inhibition compared with Nilotinib (hERG potassium channels) | also measured |
| --- | --- | --- | --- | --- |
| Cc1cn(-c2cc(NC(=O)c3ccc(C)c(Nc4nccc(-c5cccnc5)n4)c3)cc(C(F)(F)F)c2)cn1 [Compound 1, 4-methyl-N-[3-(4-methyl-1H-imidazol-1-yl)-5-(trifluoromethyl)phenyl]-3-[(4-pyridin-3-ylpyrimidin-2-yl)amino]benzamide, reference compound] | + | + | – | – |
| Cc1ccc(C(=O)Nc2cc(-n3cnc(CO)c3)cc(C(F)(F)F)c2)cc1Nc1nccc(-c2cccnc2)n1 [Compound 2, N-[3-[4-(hydroxymethyl)imidazol-1-yl]-5-(trifluoromethyl)phenyl]-4-methyl-3-[[4-(3-pyridyl)pyrimidin-2-yl]amino]benzamide] | – | ++ (IC50 more than 25% smaller than IC50 for nilotinib) | less inhibiting to hERG than Nilotinib | hERG IC50 (μM) (hERG potassium channels): +; IC50 (Flt1[h]): 1100 nM; IC50 (cSRC): 1300 nM; IC50 (cKit[h]): 1300 nM; IC50 (PDGFRα[h]): 1900 nM |
| Cc1ccc(C(=O)Nc2cc(-n3cnc(COC(=O)C4CC4)c3)cc(C(F)(F)F)c2)cc1Nc1nccc(-c2cccnc2)n1 [Compound 11] | – | ++ (IC50 more than 25% smaller than IC50 for nilotinib) | less inhibiting to hERG than Nilotinib | – |
| Cc1ccc(C(=O)Nc2cc(-n3cnc(COC(N)=O)c3)cc(C(F)(F)F)c2)cc1Nc1nccc(-c2cccnc2)n1 [Compound 12] | – | +++ (IC50 more than 75% great than IC50 for nilotinib) | less inhibiting to hERG than Nilotinib | IC50 (K-562 cells; Homo sapiens, K562, 72 h, read-out: K-562 IC50): < 1 nM |
| Cc1ccc(C(=O)Nc2cc(-n3cnc(CNCC(=O)O)c3)cc(C(F)(F)F)c2)cc1Nc1nccc(-c2cccnc2)n1 [Compound 21] | − (IC50 more than 25% great than IC50 for nilotinib) | – | – | – |
| COC(=O)CNCc1cn(-c2cc(NC(=O)c3ccc(C)c(Nc4nccc(-c5cccnc5)n4)c3)cc(C(F)(F)F)c2)cn1 [Compound 22] | − (IC50 more than 25% great than IC50 for nilotinib) | – | – | – |
